# Source: patent US10293004B2, “Butyrate-producing bacterium and use thereof” (KABUSHIKI KAISHA YAKULT HONSHA, priority 2014, dated 2019)
# How the values were obtained:
# [1] = Production of butyrate by each bacterial strain from L-sorbose and D-xylitol (ion-exclusion HPLC); settings: 24 hours, minus PYA blank
# Procedure: (§1) A frozen stock solution of each bacterial strain (a 10% (w/v) skim milk-2% sodium glutamate solution in which bacterial cells were suspended) (cell count: 2.0 to 5.5×10^10 cells/mL) was thawed, and the solution was inoculated at 1% to 4 mL of a PY liquid medium supplemented with 33 mM sodium acetate and 0.5 (w/v) % glucose (PYGA medium), followed by anaerobic culture at 37° C. for 24 hours. After the culture, the culture solution was inoculated at 1% to a fresh PYGA medium, followed by anaerobic culture at 37° C. for 24 hours. After the culture, the turbidity (OD660) of the culture solution was measured. Then, the culture solution was inoculated at 1% to a PY medium containing 0.5 (w/v) % L-sorbose or D-xylitol and 33 mM sodium acetate (the medium containing L-sorbose: PYSA, and the medium containing D-xylitol: PYXA), followed by anaerobic culture at 37° C. for 24 hours. Then, the turbidity (OD660) was measured.
# After the completion of the culture, the organic acid concentration in the culture solution was quantified by ion-exclusion HPLC. In this operation, a culture solution in a PY medium supplemented with sodium acetate but without L-sorbose or D-xylitol (PYA medium) was used as a blank.
# (HPLC Analysis Conditions) • Eluent: 15 mM perchloric acid-7% acetonitrile • pH adjuster: 15 mM perchloric acid-60 mM • tris(hydroxymethyl)aminomethane-7% acetonitrile • Separation column: Organic acid analysis column RSpak KC- • 811×2 (manufactured by Showa Denko K.K.) • Column temperature: 42° C. • Injected sample volume: 10 μL • Flow rate: 1.0 mL/min • Analysis time: 35 min • Detector: Waters 432 electric conductivity detector • Cell temperature: 45° C.
# The amount of butyrate produced was calculated according to (Expression 1). Amount of butyrate produced=(Amount of butyrate produced by culture for 24 hours in a PYSA or PYXA medium)−(Amount of butyrate produced by culture for 24 hours in a PYA medium) (Expression 1)
# [2] = Biochemical properties: enzymatic activity (API-ZYM, Rapid ID32A API, API KENKI 20A); set-up: key: +: positive reaction; −: negative reaction; +^w: weak reaction
# Source text: (§2) Commercially available API-ZYM, Rapid ID32A API, and API KENKI 20A (SYSMEX bioMerieux Co., Ltd.) were used in the testing of biochemical properties of various bacterial strains. The testing method followed the product manuals.
# [3] = Turbidity (OD660) after anaerobic culture of bacterial strains in PYGA, PYSA or PYXA medium
# Procedure: as §1
# [4] = Biochemical properties: saccharide fermentability (API-ZYM, Rapid ID32A API, API KENKI 20A); set-up: key: +: positive reaction; −: negative reaction; +^w: weak reaction
# Source text: as §2
# mouse C57BL/6J [5] = assay: Single oral dose test of YIT 12355 to mouse given indigestible saccharide; assay type: in vivo; settings: cecum, single oral dose
# Procedure: Mice were acclimatized and raised with F2 feed for 1 week and then divided into 4 groups such that the average body weight was almost equal among these groups. A control diet (Table 12) was administered thereto for 1 week. Then, the control diet was administered to the control group (−/− group) and the AH/− group for 2 weeks while purified feed containing maltitol (MAL-containing diet) was administered to the −/MAL group and the AH/MAL group for 2 weeks. A live cell suspension of YIT 12355 was administered at a single dose using a probe after the administration of the control diet for 1 week. At the final day of the test, each mouse was dissected, and the cecal contents were recovered. The cecal contents were subjected to the cell count measurement of YIT 12355. • Test material: Maltitol (5% mixed feed administration) • Administered bacterial strain: YIT 12355 • Animal species: Mouse C57BL/6J (4 weeks old; CLEA Japan, Inc.) • Group configuration: 7 mice×4 groups The bacterial solution (viable count: 3.1×10^9 cfu/mL, total cell count: 1.9×10^10 cells/mL) prepared in the preceding paragraph 2) was orally administered at a single dose of 0.2 mL (viable count: 6.2×10^8 cfu/mouse, total cell count: 3.8×10^9 cells/mouse) to each mouse using a probe. To the control group and the −/MAL group, 0.2 mL of physiological saline was administered instead of the bacterial solution. […] Then, the cecal contents were recovered. The cecal contents were diluted 10-fold with PBS and subjected to DNA extraction. DNA was extracted by the bead-phenol method described in the paragraph 4)a) of Example 5 from the 10-fold diluted solution of the intestinal tract contents. The cell count of YIT 12355 was measured by quantitative PCR using the obtained DNA as a template and the bacterial species-specific primers described in the paragraph 4)a) of Example 5. After fixation of a portion of the 10-fold diluted solution of the intestinal tract contents in a 4% solution of paraformaldehyde in PBS, the total cell count was measured by the DAPI counting method. The cell count of YIT 12355 was divided by the total cell count to calculate an occupancy (%). (Occupancy of YIT 12355) (%)=(Cell count of YIT 12355/Total cell count)×100 (Expression 5)
# mouse C57BL/6J [6] = assay: Multiple oral dose test of YIT 12355 to mouse given indigestible saccharide; assay type: in vivo; settings: for Total cell count: DAPI counting method; for Cell count, A. hadrus: quantitative PCR, multiple oral dose; for Occupancy: cell count of YIT 12355/total cell count ×100; for Detected count: mice with A. hadrus detected / mice in group
# Procedure: Mice were acclimatized and raised with F2 feed (manufactured by Funabashi Farm Co., Ltd.) for 1 week and then divided into 6 groups such that the average body weight was almost equal among these groups. Then, a control diet (Table 7) was administered thereto for 1 week and replaced with purified feed containing an indigestible material, which was then administered thereto for 2 weeks. A live cell suspension of YIT 12355 was orally administered twice a week a total of 4 times using a probe. At the final day of the test, each mouse was dissected, and the cecal and colonic contents were recovered and examined for an organic acid concentration. Also, the cell count of YIT 12355 in the intestinal tract contents was measured by quantitative PCR, while change in the whole intestinal flora was examined by use of PCR-DGGE (denaturing gradient gel electrophoresis). • Animal used: mouse C57BL/6J (4 weeks old; CLEA Japan, Inc.) • Test period: 3 weeks • Indigestible saccharide used: lactitol and maltitol • Dose of indigestible saccharide: 5% (w/w) • Administered bacterial strain: YIT 12355 • Dose of bacterium: live cell dose: 3.9 to 6.9×10^8 cfu/mouse (administration of a suspension in physiological saline using a probe). Total cell count including dead cells: […] cfu/mouse • Group configuration: 6 groups (5 mice/group) At the 2nd week of administration of the test feed, each mouse was anesthetized with diethyl ether and euthanized by cervical dislocation. After abdominal section, cecal tissues and colonic tissues were excised to recover their contents. The cecal and colonic contents were diluted 10-fold with PBS and subjected to DNA extraction. DNA was extracted by the bead-phenol method from the 10-fold diluted solution of the intestinal tract contents. Specifically, 0.3 g of glass beads (diameter: 0.1 mm), 300 μL of a Tris-SDS solution (a mixed solution of 250 mL of 200 mM Tris-HCl, 80 mM EDTA, pH 9.0, and 50 mL of 10% SDS) and 500 μL of TE saturated phenol were added to 200 μL of the diluted solution of the intestinal tract contents, and the mixture was vigorously shaken for 30 seconds using FASTPREP FP120 cell disruptive equipment (power level: 5.0). After centrifugation at 15,000 rpm for 5 minutes, 400 μL of a phenol/chloroform/isoamyl alcohol (25:24:1) solution was added to 400 μL of the supernatant, and the mixture was shaken for 45 seconds using FASTPREP FP120 cell disruptive equipment (power level: 4.0). After centrifugation at 15,000 rpm for 5 minutes, 25 μL of 3 M sodium acetate (pH 5.4) and 250 μL of isopropanol were added to 250 μL of the supernatant and mixed therewith. After centrifugation at 15,000 rpm for 5 minutes, the supernatant was removed, and 500 μL of 70% ethanol was added thereto, followed by centrifugation again at 15,000 rpm for 5 minutes. The supernatant was removed, and the pellets were dried and dissolved in 1.0 mL of a TE buffer. The obtained DNA solution was diluted 10-fold with purified water to prepare a template DNA solution. For quantitative PCR, 7500 Real-Time PCR System (manufactured by Life Technologies Corp.) was used. The total volume of the reaction solution was set to 20 μL, and SYBR Premix Ex Taq II (Takara Bio Inc.) containing 1.0 μM each of primers, and the template DNA solution were mixed and then subjected to quantitative PCR. The reaction conditions involved heating at 95° C. for 2 minutes, followed by 40 repetitive cycles each involving reactions at 95° C. for 20 seconds, 55° C. for 20 seconds and 72° C. for 50 seconds, and subsequent reaction at 72° C. for 3 minutes. For subsequent Tm value analysis, after reaction at 60° C. for 1 minute, the temperature was elevated at a temperature gradient of 0.2° C./sec to 95° C. during which the fluorescence of SYBR Green I was measured to measure the dissociation temperature (Tm) of the double strand of the amplification product. […]
compound,measurement,setting,value
Anaerostipes hadrus (Eubacterium hadrum) YIT 10092^T (DSM 3319^T) [reference compound],Amount of butyrate produced,"[1]; D-Xylitol 0.5 (w/v) %, PYXA medium",-0.1 mmol/L
same,Amount of butyrate produced,"[1]; L-Sorbose 0.5 (w/v) %, PYSA medium",9.7 mmol/L
same,Acid phosphatase,[2],+
same,Alkaline phosphatase,[2],−
same,Esterase (C4),[2],+
same,Naphthol-AS-B1-phosphohydrolase,[2],+
same,α-Glucosidase,[2],−
same,β-Galactosidase,[2],+
same,β-Galactosidase-6-phosphate,[2],+
same,Turbidity (OD660),[3]; after anaerobic culture at 37° C. for 24 hours in PYGA liquid medium,2.80
same,Turbidity (OD660),[3]; anaerobic culture at 37° C. for 24 hours of 1% inoculum in PYSA (L-sorbose),2.56
same,Turbidity (OD660),[3]; anaerobic culture at 37° C. for 24 hours of 1% inoculum in PYXA (D-xylitol),0.11
same,Aesculin,[4],−
same,D-Cellobiose,[4],+
same,D-Mannitol,[4],+
same,D-Raffinose,[4],−
same,D-Xylose,[4],+
same,Glycerol,[4],−
same,L-Arabinose,[4],+
same,L-Rhamnose,[4],−
same,L-Sorbitol,[4],+
same,Mallose,[4],+^w
same,Salicin,[4],+
"OC[C@@H](O)[C@@H](O[C@H]1O[C@H](CO)[C@@H](O)[C@H](O)[C@H]1O)[C@H](O)[C@@H](O)CO [—/MAL group, maltitol]",Total cell count,mouse C57BL/6J [5]; DAPI counting method,10.9 ± 0.1 log10 (cells/g contents)
same,"Cell count, A. hadrus YIT 12355",mouse C57BL/6J [5]; quantitative PCR,<6.0 log10 (cells/g contents)
same,Occupancy,mouse C57BL/6J [5]; ratio to total cell count,0.0%
same,Total cell count,mouse C57BL/6J [6]; Cecal contents,11.0 ± 0.1 log10 cells/g contents
same,"Cell count, A. hadrus",mouse C57BL/6J [6]; Cecal contents,6.1 log10 cells/g contents
same,Occupancy,mouse C57BL/6J [6]; Cecal contents,0.001%
same,Detected count,mouse C57BL/6J [6]; Cecal contents,(1/5)
same,Total cell count,mouse C57BL/6J [6]; Colonic contents,11.0 ± 0.1 log10 cells/g contents
same,Occupancy,mouse C57BL/6J [6]; Colonic contents,0.000%
same,Detected count,mouse C57BL/6J [6]; Colonic contents,(0/5)
"OC[C@@H](O)[C@@H](O[C@@H]1O[C@H](CO)[C@H](O)[C@H](O)[C@H]1O)[C@H](O)[C@@H](O)CO [—/LAC group, lactitol]",Total cell count,mouse C57BL/6J [6]; Cecal contents,11.1 ± 0.1 log10 cells/g contents
same,"Cell count, A. hadrus",mouse C57BL/6J [6]; Cecal contents,7.2 log10 cells/g contents
same,Occupancy,mouse C57BL/6J [6]; Cecal contents,0.014%
same,Detected count,mouse C57BL/6J [6]; Cecal contents,(1/5)
same,Total cell count,mouse C57BL/6J [6]; Colonic contents,11.1 ± 0.1 log10 cells/g contents
same,Occupancy,mouse C57BL/6J [6]; Colonic contents,0.000%
same,Detected count,mouse C57BL/6J [6]; Colonic contents,(0/5)
